This is an account of results in ChEMBL document CHEMBL1649499, “Nine-hospital study comparing broth microdilution and Etest method results for vancomycin and daptomycin against methicillin-resistant Staphylococcus aureus” (2009).

In assay [1] the test system is Staphylococcus aureus. The experiment in a line: Antibacterial activity against methicillin-resistant Staphylococcus aureus by Etest method. In kind it is functional.
Assay [2] has as its system Staphylococcus aureus. In words: Antibacterial activity against methicillin-resistant Staphylococcus aureus by broth microdilution method. It is filed as functional. Background: Dilution methods test growth across graded concentrations, often in twofold steps.

Values after ≈ are worked out from the molar mass of the structure shown. A value given as a limit tells only on which side of the number the result lay.

Broadly, the MIC is the smallest concentration in the dilution series that meets the test's criterion for growth inhibition. A higher MIC goes with a less susceptible organism.

Turning to `CCCCCCCCCC(=O)N[C@@H](Cc1c[nH]c2ccccc12)C(=O)N[C@H](CC(N)=O)C(=O)N[C@@H](CC(=O)O)C(=O)N[C@@H]1C(=O)NCC(=O)N[C@@H](CCCN)C(=O)N[C@@H](CC(=O)O)C(=O)N[C@H](C)C(=O)N[C@@H](CC(=O)O)C(=O)NCC(=O)N[C@H](CO)C(=O)N[C@@H]([C@H](C)CC(=O)O)C(=O)N[C@@H](CC(=O)c2ccccc2N)C(=O)O[C@@H]1C`, the MIC in the assay with Staphylococcus aureus [1] is 0.38 µg/mL (≈ 0.234 µM); in the assay on Staphylococcus aureus [2], at most 0.25 µg/mL.
With `CN[C@H](CC(C)C)C(=O)N[C@H]1C(=O)N[C@@H](CC(N)=O)C(=O)N[C@H]2C(=O)N[C@H]3C(=O)N[C@H](C(=O)N[C@H](C(=O)O)c4cc(O)cc(O)c4-c4cc3ccc4O)[C@H](O)c3ccc(c(Cl)c3)Oc3cc2cc(c3O[C@@H]2O[C@H](CO)[C@@H](O)[C@H](O)[C@H]2O[C@H]2C[C@](C)(N)[C@H](O)[C@H](C)O2)Oc2ccc(cc2Cl)[C@H]1O` [VANCOMYCIN], the minimum inhibitory concentration (MIC) with Staphylococcus aureus [2] is above 1 µg/mL.
